The test system of data set [1] is HUVECs. As to the kind of experiment: Internalization of microparticles into endothelial cells. The format is cell-based, human. As to conditions: HUVECs pre-treated with 10 mM MβCD 15 min or 2.5 μg/mL cav-1 nAb 30 min at 37° C., then MPs 6 h. As for the experimental part: Internalization of hepatocyte-derived MPs into HUVECs and the role of VNN1 and lipid raft were evaluated by flow cytometry, indirect immunofluorescence and electron microscopy. To investigate the MPs internalization into HUVECs, by flow cytometry, MPs were stained with 1 μM of Calcein, AM (MPCalcein) (BD Biosciences), a fluorescent dye with an emission wavelength of 515 nm, for 1 h in the dark at 37° C. MPs were centrifuged twice with PBS for 30 minutes at 35,000 rpm and resuspended in 500 μL of EGM medium. To block MPs internalization, MPsCalcein were incubated with or without 4 μg/mL of rabbit polyclonal anti-VNN1 antibody (S3055; Epitomics, Burlingame, Calif., USA) for 30 minutes at RT. A rabbit anti-GAPDH antibody (Abcam, Cambridge, Mass., USA) was used as a control. […] Cells were trypsinized and FITC positive HUVECs were detected by BD LSRII Flow Cytometer System (BD) and counted. […]
The MPs suspension was incubated in the dark for 4 minutes, and then 2 mL of 1% BSA was added and kept for 1 minute to stop the reaction. […] HUVECs (4×10^3 cell per well) were seeded onto a 24-well plate and depletion of cholesterol was assessed by a treatment with 10 mM of Methyl-β-cyclodextrin (MβCD) in serum-free EBM-2 medium for 15 minutes at 37° C., followed by wash with fresh medium. […]

In data set [2] the test system is HUVECs. As to the kind of experiment: HUVEC tube formation assay. The format is cell-based, human. The procedure:
HUVECs (0.5-1×10^5 cells per well) were seeded onto a coated 24-well plate culture dishes with 200 μl/cm2 (thick gel method) of Matrigel (BD, Franklin Lakes, N.J., USA) and cultured in EBM-2 basal medium supplemented with 1.1% of streptomycin and penicillin in the presence of 100 ng/mL of VEGF (Peprotech, Rocky Hill, N.J., USA), hepatocytes-derived MPs, MP-free supernatant or conditioned supernatant collected after 24 hours of treatment with FFAs. In selective studies, a specific inhibitor for RhoA-ROCK (Y27632, 10 μM) was used in association with MPs in the treatment of endothelial cells. For the ex vivo studies, PFP isolated from different groups of mice (chow, HF/HCarb, MCD fed mice and mice injected with control RNA, VNN1 siRNA or PBS as vehicle) were ultracentrifuged at 100,000 g for 1 h at 10° C. to pellet the blood MPs. HUVECs were treated with MPs (or blood pure MPs) and incubated for 5 h at 37° C. Tube formation was investigated by using an inverted microscope at 4× magnification and images were captured. Tube formation image analysis was assessed by using Wimtube software (Wimasis, Munich, Germany) and the values referred to total tube length (pixel) were used for statistical and data analysis.

The test system of data set [3] is HUVECs. The data set is described as follows: HUVEC migration (Boyden's chamber chemotaxis, wound healing). The format is cell-based, human. The procedure: In vitro migration studies have been performed by using human umbilical cell endothelial cells (HUVECs). Wound healing assay was performed to analyze chemokinesis (non-oriented migration) by using collagen-coated 6-well culture plate, where a silicon elastomer (PDMS) strip was placed vertically to the bottom of every well to create the artificial wound. HUVECs were plated and grown until reaching the complete confluence. HUVECs were treated with EBM-2 supplemented with 100 ng/mL of VEGF (Peprotech, Rocky Hill, N.J., USA), hepatocytes-derived MPs, MP-free supernatant or supernatant collected after 24 hours of treatment with FFAs. The strips were removed carefully and migration of cells was detected by a confocal microscope, capturing one picture per field every 10 minutes for 48 hours. Mitomycin (1 μg/ml) was used to inhibit cell proliferation during wound healing assay. Data were analyzed by using Wimscratch software (Wimasis, Munich, Germany) in order to get the total cell-covered area (pixel). Boyden's chamber assay was performed to analyze chemotaxis (oriented migration) by using cell culture inserts 8 μm pore size (Millipore, Billerica, Mass., USA) and 24-well plate. Each well was filled with 500 μl of serum free EBM-2 media in presence or absence of the following chemoattractants: 100 ng/mL VEGF; hepatocytes-derived MPs; MP-free supernatant or conditioned supernatant. The inserts were placed on top of each well and 150 μl of cell suspension (5×10^4 cells) was added. Plates were incubated overnight at 37° C., and then the filters were removed and stained with Vectashield mounting medium with 4′,6-diamino-2-phenylindole (DAPI) (Vector Labs, Burlingame, Calif., USA).
Migrated cells were detected with a fluorescence microscope and number per field of their nuclei was counted. For the ex vivo studies, PFP isolated from different groups of mice (chow, HF/HCarb, MCD fed mice and mice injected with control siRNA, VNN1 siRNA or PBS as vehicle) were ultracentrifuged at 100,000 g for 1 h at 10° C. to pellet the blood MPs.

The subject of data set [4] is HepG2 and primary rat hepatocytes. As to the kind of experiment: Release of Annexin V-positive MPs from hepatocytes (flow cytometry). As to conditions: palmitic acid-treated hepatocytes co-incubated with caspase 3 inhibitor (FIGS. 2E, 2G). The format is cell-based, human (HepG2); rat (primary hepatocytes). The procedure:
For microparticles (MPs) isolation, HepG2 and primary rat hepatocytes were seeded onto a 100 mm dish and cultured until reaching 80-85% of confluence. Cells were incubated with 0.25 mM of palmitic, stearic, oleic or linoleic acid (FFA) in serum-free DMEM, supplemented with 1.1% penicillin and streptomycin, 1% endotoxin-free bovine serum albumin (BSA), for up to 24 h. […] The uptake of FFAs from hepatocytes was evaluated by Oil red-O staining kit (Cayman, Ann Arbor, Mich., USA) according to the manufacturer instruction. To determine the effect of caspase 3 activity, hepatocytes were treated with a selective caspase 3 inhibitor, Ac-DEVD-CHO (BD Pharmingen, Franklin Lakes, N.J., US). Control cells were incubated with the same serum-free media in association to the vehicle that was used to dissolve the FFAs. After 24 h, the supernatant were collected and centrifuged twice at 3,000 rpm for 15 minutes to remove cell debris and aggregates. The supernatant was then transferred to new tubes and ultracentrifuged at 100,000 g for 90 minutes at 10° C., to avoid contamination of exosomes.
The supernatant was collected in new tubes and used as a MP-free control and the pelleted MPs were resuspended in 200 μl of PBS for flow cytometry or in 500 μl of EGM-2 growth medium for subsequent in vitro studies. The concentration of microparticles μg/mL was determined by the BCA protein assay and different concentrations of MPs (50, 125, 250 and 500 μg/mL) were used to perform the dose-dependent angiogenesis in vitro assays. For selected purposes, in particular for the characterization analyses, crude MPs were purified by 10-70% sucrose gradient ultracentrifugation at 150,000 g for 18 h at 10° C., collected as fractions in new tubes. […]
Flow cytometry analyses for microparticles (or endothelial cells) detection were performed by using BD LSRII Flow Cytometer System (BD Biosciences, San Jose, Calif., USA) and the data were analyzed using FlowJo software (TreeStar Inc., Ashland, Oreg., USA). […]
Background: Flow cytometry measures light scatter and fluorescence of single cells or particles in a stream.

The mark [5] stands for this setting: HUVECs treated with MPs and Y27632, 10 μM.

Turning to Methyl-β-cyclodextrin, the “MPs internalization into the endothelial cells” value in the data set on HUVECs [1] is “marked reduction”.
In the case of `CCCCCCCCCCCCCCCCCC(=O)O` [stearic acid], the “tube formation induced by cell-free supernatants of FFA-treated hepatocytes” value in the data set on HUVECs [2] (supernatants from HepG2/primary rat hepatocytes incubated with FFA up to 24 h, VEGF-A positive control) is listed as “marked increase”. Besides, the “endothelial cell oriented (chemotaxis) and non-oriented migration induced by cell-free supernatants of FFA-treated hepatocytes” value with HUVECs [3] (supernatants from hepatocytes incubated with FFA up to 24 h, VEGF-A positive control) was “marked increase”.
With `C[C@@H](N)[C@H]1CC[C@H](C(=O)Nc2ccncc2)CC1` [Y-27632], the “tube formation (MP-mediated)” value with HUVECs [2] (setting [5]) is reported as “significant decrease”. In the data set on HUVECs [3] (setting [5]), the “chemotaxis (MP-mediated)” value is listed as “significant decrease”.
Take “Ac-DEVD-CHO [selective caspase 3 inhibitor]”: the “formation and release of MPs” value in data set [4] is “drastically reduced”.

Values taken from US20150247149A1, “Detecting and Treating Liver Damage” (The Regents of the University of California, priority 2012, published 2015).
